Reference: ChEMBL document CHEMBL3046521, “Synthesis and antitumor activity of (4-hydroxyphenyl)[5-substituted alkyl/aryl)-2-thioxo-1,3,4-thiadiazol-3-yl]methanone and [(3,4-disubstituted)-1,3-thiazol-2ylidene]-4-hydroxybenzohydrazide” (2011)

What was measured:
Format in all cases: functional
OVCAR-4 = experiment: Cytotoxicity against Homo sapiens (human) OVCAR4 cells after 48 hr by sulforhodamine B assay; conditions: OVCAR-4, 48 h
NCI-H522 = experiment: Cytotoxicity against Homo sapiens (human) NCI-H522 cells after 48 hr by sulforhodamine B assay; conditions: NCI-H522, 48 h
BT-549 = experiment: Cytotoxicity against Homo sapiens (human) BT549 cells after 48 hr by sulforhodamine B assay; conditions: BT-549, 48 h
OVCAR-3 = experiment: Cytotoxicity against Homo sapiens (human) OVCAR3 cells after 48 hr by sulforhodamine B assay; conditions: OVCAR-3, 48 h
K562 = experiment: Cytotoxicity against Homo sapiens (human) K562 cells after 48 hr by sulforhodamine B assay; conditions: K562, 48 h
CCRF-CEM = experiment: Cytotoxicity against Homo sapiens (human) CCRF-CEM cells after 48 hr by sulforhodamine B assay
NCI-H322M = experiment: Cytotoxicity against Homo sapiens (human) NCI-H322M cells after 48 hr by sulforhodamine B assay
IGROV-1 = experiment: Cytotoxicity against Homo sapiens (human) IGROV1 cells after 48 hr by sulforhodamine B assay; conditions: IGROV-1, 48 h
HCC 2998 = experiment: Cytotoxicity against Homo sapiens (human) HCC2998 cells after 48 hr by sulforhodamine B assay; conditions: HCC 2998, 48 h
UO-31 = experiment: Cytotoxicity against Homo sapiens (human) UO31 cells after 48 hr by sulforhodamine B assay; conditions: UO-31, 48 h
SW-620 = experiment: Cytotoxicity against Homo sapiens (human) SW620 cells after 48 hr by sulforhodamine B assay; conditions: SW-620, 48 h
CAKI-1 = experiment: Cytotoxicity against Homo sapiens (human) Caki1 cells after 48 hr by sulforhodamine B assay; conditions: CAKI-1, 48 h
UACC-62 = experiment: Cytotoxicity against Homo sapiens (human) UACC62 cells after 48 hr by sulforhodamine B assay; conditions: UACC-62, 48 h
MCF7 = experiment: Cytotoxicity against Homo sapiens (human) MCF7 cells after 48 hr by sulforhodamine B assay; conditions: MCF7, 48 h
A549 = experiment: Cytotoxicity against Homo sapiens (human) A549 cells after 48 hr by sulforhodamine B assay; conditions: A549, 48 h
SN12C = experiment: Cytotoxicity against Homo sapiens (human) SN12C cells after 48 hr by sulforhodamine B assay
SF-268 = experiment: Cytotoxicity against Homo sapiens (human) SF268 cells after 48 hr by sulforhodamine B assay; conditions: SF-268, 48 h
HCT-116 = experiment: Cytotoxicity against Homo sapiens (human) HCT116 cells after 48 hr by sulforhodamine B assay; conditions: HCT-116, 48 h
TK-10 = experiment: Cytotoxicity against Homo sapiens (human) TK10 cells after 48 hr by sulforhodamine B assay; conditions: TK-10, 48 h
SK-MEL-2 = experiment: Cytotoxicity against Homo sapiens (human) SK-MEL-2 cells after 48 hr by sulforhodamine B assay; conditions: SK-MEL-2, 48 h
MOLT-4 = experiment: Cytotoxicity against Homo sapiens (human) MOLT4 cells after 48 hr by sulforhodamine B assay; conditions: MOLT-4, 48 h
SK-OV-3 = experiment: Cytotoxicity against Homo sapiens (human) SKOV3 cells after 48 hr by sulforhodamine B assay; conditions: SK-OV-3, 48 h
HOP-92 = experiment: Cytotoxicity against Homo sapiens (human) HOP92 cells after 48 hr by sulforhodamine B assay; conditions: HOP-92, 48 h
SF-539 = experiment: Cytotoxicity against Homo sapiens (human) SF539 cells after 48 hr by sulforhodamine B assay; conditions: SF-539, 48 h
SK-MEL-5 = experiment: Cytotoxicity against Homo sapiens (human) SK-MEL-5 cells after 48 hr by sulforhodamine B assay; conditions: SK-MEL-5, 48 h
MDA-MB-468 = experiment: Cytotoxicity against Homo sapiens (human) MDA-MB-468 cells after 48 hr by sulforhodamine B assay; conditions: MDA-MB-468, 48 h
MDA-MB-435 = experiment: Cytotoxicity against Homo sapiens (human) MDA-MB-435 cells after 48 hr by sulforhodamine B assay; conditions: MDA-MB-435, 48 h
OVCAR-5 = experiment: Cytotoxicity against Homo sapiens (human) OVCAR5 cells after 48 hr by sulforhodamine B assay; conditions: OVCAR-5, 48 h
RXF 393 = experiment: Cytotoxicity against Homo sapiens (human) RXF393 cells after 48 hr by sulforhodamine B assay; conditions: RXF 393, 48 h
MDA-MB-231 = experiment: Cytotoxicity against Homo sapiens (human) MDA-MB-231 cells after 48 hr by sulforhodamine B assay; conditions: MDA-MB-231, 48 h

O=C(c1ccc(O)cc1)n1nc(-c2c(Cl)cccc2Cl)sc1=S
GI50 (OVCAR-4): 11.5 µM | LC50 (OVCAR-4): > 100 µM | TGI (OVCAR-4; read-out: pTGI (converted)): 77.6 µM | GI50 (NCI-H522): 11.7 µM | LC50 (NCI-H522): > 100 µM | TGI (NCI-H522; read-out: pTGI (converted)): 41.7 µM | GI50 (BT-549): 28.8 µM | LC50 (BT-549): > 100 µM | TGI (BT-549; read-out: pTGI (converted)): 60.3 µM | GI50 (OVCAR-3): 6.17 µM | LC50 (OVCAR-3): 67.6 µM | TGI (OVCAR-3; read-out: pTGI (converted)): 28.8 µM | GI50 (K562): 3.39 µM | LC50 (K562): > 100 µM | TGI (K562; read-out: pTGI (converted)): 28.8 µM | GI50 (CCRF-CEM): 9.55 µM | LC50 (CCRF-CEM): > 100 µM | TGI (CCRF-CEM; read-out: pTGI): > 100 µM | GI50 (NCI-H322M): 15.1 µM | LC50 (NCI-H322M): > 100 µM | TGI (NCI-H322M; read-out: pTGI (converted)): 66.1 µM | GI50 (IGROV-1): 12.9 µM | LC50 (IGROV-1): > 100 µM | TGI (IGROV-1; read-out: pTGI (converted)): 89.1 µM | GI50 (HCC 2998): 4.9 µM | LC50 (HCC 2998): > 100 µM | TGI (HCC 2998; read-out: pTGI (converted)): 28.8 µM | GI50 (UO-31): 9.33 µM | LC50 (UO-31): > 100 µM | TGI (UO-31; read-out: pTGI): > 100 µM | GI50 (SW-620): 12 µM | LC50 (SW-620): 87.1 µM | TGI (SW-620; read-out: pTGI (converted)): 31.6 µM | GI50 (CAKI-1): 6.03 µM | LC50 (CAKI-1): > 100 µM | TGI (CAKI-1; read-out: pTGI (converted)): 57.5 µM | GI50 (UACC-62): 9.55 µM | LC50 (UACC-62): 58.9 µM | TGI (UACC-62; read-out: pTGI (converted)): 24 µM | GI50 (MCF7): 11.5 µM | LC50 (MCF7): 87.1 µM | TGI (MCF7; read-out: pTGI (converted)): 32.4 µM | GI50 (A549): 12.3 µM | LC50 (A549): > 100 µM | TGI (A549; read-out: pTGI (converted)): 58.9 µM | GI50 (SN12C): 11.2 µM | LC50 (SN12C): > 100 µM | TGI (SN12C; read-out: pTGI (converted)): 46.8 µM | GI50 (SF-268): 7.59 µM | LC50 (SF-268): > 100 µM | TGI (SF-268; read-out: pTGI (converted)): 34.7 µM | GI50 (HCT-116): 10.7 µM | LC50 (HCT-116): 52.5 µM | TGI (HCT-116; read-out: pTGI (converted)): 24 µM | GI50 (TK-10): 4.47 µM | LC50 (TK-10): > 100 µM | TGI (TK-10; read-out: pTGI (converted)): 42.7 µM | GI50 (SK-MEL-2): 14.5 µM | LC50 (SK-MEL-2): 95.5 µM | TGI (SK-MEL-2; read-out: pTGI (converted)): 37.2 µM | GI50 (MOLT-4): 4.47 µM | LC50 (MOLT-4): > 100 µM | TGI (MOLT-4; read-out: pTGI (converted)): 27.5 µM | GI50 (SK-OV-3): 17.4 µM | LC50 (SK-OV-3): > 100 µM | TGI (SK-OV-3; read-out: pTGI (converted)): 44.7 µM | GI50 (HOP-92): 0.324 µM | LC50 (HOP-92): 43.7 µM | TGI (HOP-92; read-out: pTGI (converted)): 7.76 µM | GI50 (SF-539): 14.8 µM | LC50 (SF-539): 58.9 µM | TGI (SF-539; read-out: pTGI (converted)): 29.5 µM | GI50 (SK-MEL-5): 10.7 µM | LC50 (SK-MEL-5): 56.2 µM | TGI (SK-MEL-5; read-out: pTGI (converted)): 24.5 µM | GI50 (MDA-MB-468): 8.71 µM | LC50 (MDA-MB-468): > 100 µM | TGI (MDA-MB-468; read-out: pTGI (converted)): 91.2 µM | GI50 (MDA-MB-435): 3.72 µM | LC50 (MDA-MB-435): > 100 µM | TGI (MDA-MB-435; read-out: pTGI (converted)): 31.6 µM | GI50 (OVCAR-5): 19.5 µM | LC50 (OVCAR-5): > 100 µM | TGI (OVCAR-5; read-out: pTGI (converted)): 61.7 µM | GI50 (RXF 393): 17.4 µM | LC50 (RXF 393): > 100 µM | TGI (RXF 393; read-out: pTGI (converted)): 51.3 µM | GI50 (MDA-MB-231): 13.2 µM | LC50 (MDA-MB-231): > 100 µM | TGI (MDA-MB-231; read-out: pTGI (converted)): 60.3 µM
